Source: patent US20240317689A1, “POTASSIUM CHANNEL MODULATOR, COMPOSITION AND APPLICATION” (NEUSHEN THERAPEUTICS (SHANGHAI) CO., LTD, priority 2021, published 2024)

Each compound was assayed against T1, KCNQ2/3 potassium ion channel (Homo sapiens, UniProt O43525+O43526) (assay: KCNQ2/3 potassium ion channel activation assay (whole-cell patch clamp, hKCNQ-CHO cells)). Settings: test concentration 3 μM, read-out: Enhancment % (current enhancement multiple).
T1 construct: expressed in transfected cells; host or cells: CHO cells (hKCNQ-CHO)
Assay type: cell-based
Experimental: Example 64: KCNQ2/3 Potassium Ion Channel Activation Assay
hKCNQ-CHO cells were cultured at 37° C. in a humidified environment of 5% CO2.
• 2.1. Extracellular fluid (mM): NaCl 145, KCl 4, CaCl2 2, MgCl2 1, Glucose 10, HEPES 10. The pH value of the extracellular fluid was adjusted to 7.4 with NaOH, and the osmotic pressure was adjusted to about 295 mOsm. • 2.2. Intracellular fluid (mM (mmol/L)): KOH 31.25, KCl 120, EGTA 10, MgCl2 1.75, CaCl2 5.374, HEPES 10, Na-ATP 4. The pH value of the intracellular fluid was adjusted to 7.4 with HCl, and the osmotic pressure was adjusted to about 285 mOsm. • 2.3. The extracellular fluid should be prepared once a week, and the intracellular fluid should be stored at −20° C. after preparation.
The model positive reference compound Retigabine (RTG) was dissolved with 100% DMSO and configured as a 10 mM working solution. The test compounds were dissolved with 100% DMSO and configured as a 10 mM working solution. The final concentration of DMSO in the test solution should be less than 0.3%.
Whole-cell patch clamp was performed at room temperature. The electrical signals recorded with the EPC 10 USB amplifier (HEKA Elektronik, Germany) were filtered by a 3 kHz low-pass filter, and finally recorded in PatchMaster 2×90.5 software (HEKA Elektronik, Germany). At this step, the quality control standard was that the cell high-resistance sealing was greater than 500 MOhms, and the detection current was greater than 0.4 nA.
The recording electrodes were pulled out and polished with a vertical puller (NARISHIGE PC-10, Japan) using a borosilicate glass capillary (GC150tF-10, Harvard Apparatus Co., UK). At this step, the quality control standard was that the electrode resistance was between 2 MΩ and 5 MΩ.
During the recording process of the whole-cell patch clamp, a continuous perfusion system (BT100-2J, LongerPump, China) was used to continuously perfuse the extracellular fluid. The perfusion system was installed on the stage of an upright microscope (FN-S2N, Nikon, Japan), and the perfusion head was manually positioned under the microscope.
The voltage command for detecting the amplitude of hKCNQ current was as follows: the cell stepped from the clamping potential of −80 mV to −30 mV, and held for 1500 ms; and then the clamping voltage was lowered to −120 my and held for 500 ms; finally, the voltage returned to the clamping potential of −80 mV. The detection voltage command was repeated every 15,000 milliseconds, and the command was continuously executed during the compound test. The quality control standard for compound action stability was the current amplitude under 5 consecutive voltage commands, and the coefficient of variation of the current amplitude was <5%.
Data analysis was performed using PatchMaster 2×90.5 software (HEKA Elektronik, Germany) and Excel 2013 (Microsoft, USA) software. For each cell's patch clamp recording, the amplitude of the hKCNQ channel current (Itest) corresponding to the test compound concentration should be obtained. The enhanced channel current was obtained by subtracting the cell's original channel current (Icontrol) from Itest and dividing by Icontrol to obtain the current enhancement multiple. That is, the current enhancement multiple (Enhancment %)=(Itest −Icontrol)/Icontrol[…].

Activation at 3 µM, > 100%:
Cc1cc(N2CCCc3cc(O[C@H](C)C(F)(F)F)c(F)cc3C2)cc(C)c1NC(=O)CC(C)(C)C [Compound 037, (R)—N-(4-(8-fluoro-7-((1,1,1-trifluoropropan-2-yl)oxy)-1,3,4,5-tetrahydro-2H-benzo[c]azepin-2-yl)-2,6-dimethylphenyl)-3,3-dimethylbutanamide]
COc1cc2c(cc1F)CN(c1cc(C)c(NC(=O)CC(C)(C)C)c(C)c1)CCC2 [Compound 038, N-(4-(8-fluoro-7-methoxy-1,3,4,5-tetrahydro-2H-benzo[c]azepin-2-yl)-2,6-dimethylphenyl)-3,3-dimethylbutanamide]
CCC(C)Oc1cc2c(cc1F)CN(c1cc(C)c(NC(=O)CC(C)(C)C)c(C)c1)CCC2 (centres unmarked) [Compound 039, N-(4-(7-(sec-butoxy)-8-fluoro-1,3,4,5-tetrahydro-2H-benzo[c]azepin-2-yl)-2,6-dimethylphenyl)-3,3-dimethylbutanamide]
CC[C@H](C)Oc1cc2c(cc1F)CN(c1cc(C)c(NC(=O)CC(C)(C)C)c(C)c1)CCC2 [Compound 040, (S)—N-(4-(7-(sec-butoxy)-8-fluoro-1,3,4,5-tetrahydro-2H-benzo[c]azepin-2-yl)-2,6-dimethylphenyl)-3,3-dimethylbutanamide]
CC[C@@H](C)Oc1cc2c(cc1F)CN(c1cc(C)c(NC(=O)CC(C)(C)C)c(C)c1)CCC2 [Compound 041, (R)—N-(4-(7-(sec-butoxy)-8-fluoro-1,3,4,5-tetrahydro-2H-benzo[c]azepin-2-yl)-2,6-dimethylphenyl)-3,3-dimethylbutanamide]
Cc1cc(N2CCCc3cc(OC4CC4)c(F)cc3C2)cc(C)c1NC(=O)CC(C)(C)C [Compound 042, N-(4-(7-cyclopropoxy-8-fluoro-1,3,4,5-tetrahydro-2H-benzo[c]azepin-2-yl)-2,6-dimethylphenyl)-3,3-dimethylbutanamide]
Cc1cc(N2CCCc3cc(OC4CCC4)c(F)cc3C2)cc(C)c1NC(=O)CC(C)(C)C [Compound 043, N-(4-(7-cyclobutoxy-8-fluoro-1,3,4,5-tetrahydro-2H-benzo[c]azepin-2-yl)-2,6-dimethylphenyl)-3,3-dimethylbutanamide]
Cc1cc(N2CCCc3cc(OC4CCCC4)c(F)cc3C2)cc(C)c1NC(=O)CC(C)(C)C [Compound 044, N-(4-(7-(cyclopentyloxy)-8-fluoro-1,3,4,5-tetrahydro-2H-benzo[c]azepin-2-yl)-2,6-dimethylphenyl)-3,3-dimethylbutanamide]
Cc1cc(N2CCCc3cc(OC4CCCCC4)c(F)cc3C2)cc(C)c1NC(=O)CC(C)(C)C [Compound 045, N-(4-(7-(cyclohexyloxy)-8-fluoro-1,3,4,5-tetrahydro-2H-benzo[c]azepin-2-yl)-2,6-dimethylphenyl)-3,3-dimethylbutanamide]
Cc1cc(N2CC=Cc3cc(F)c(F)cc3C2)cc(C)c1NC(=O)CC(C)(C)C [Compound 046, N-(4-(7,8-difluoro-1,3-dihydro-2H-benzo[c]azepin-2-yl)-2,6-dimethylphenyl)-3,3-dimethylbutanamide]
Cc1cc(N2CCCc3cc(F)c(F)cc3C2)cc(C)c1NC(=O)CC(C)(C)C [Compound 047, N-(4-(7,8-difluoro-1,3,4,5-tetrahydro-2H-benzo[c]azepin-2-yl)-2,6-dimethylphenyl)-3,3-dimethylbutanamide]
Cc1cc(N2CCCc3cc(F)c(F)cc3C2)c(Cl)c(C)c1NC(=O)CC(C)(C)C [Compound 048, N-(3-chloro-4-(7,8-difluoro-1,3,4,5-tetrahydro-2H-benzo[c]azepin-2-yl)-2,6-dimethylphenyl)-3,3-dimethylbutanamide]
Cc1cc(N2CCC3(CC3)c3cc(F)c(F)cc3C2)cc(C)c1NC(=O)CC(C)(C)C [Compound 049, N-(4-(7,8-difluoro-3,4-dihydrospiro[benzo[c]azepine-5,1′-cyclopropan]-2(1H)-yl)-2,6-dimethylphenyl)-3,3-dimethylbutanamide]
Cc1cc(N2CCCc3cc(OC/C=C/C(F)(F)F)ccc3C2)cc(C)c1NC(=O)CC(C)(C)C [Compound 050, (E)-N-(2,6-dimethyl-4-(7-((4,4,4-trifluorobut-2-en-1-yl)oxy)-1,3,4,5-tetrahydro-2H-benzo[c]azepin-2-yl)phenyl)-3,3-dimethylbutanamide]
Cc1cc(N2CCCc3cc(OC45CC(C(F)F)(C4)C5)ccc3C2)cc(C)c1NC(=O)CC(C)(C)C [Compound 051, N-(4-(7-((3-(difluoromethyl)bicyclo[1.1.1]pentan-1-yl)oxy)-1,3,4,5-tetrahydro-2H-benzo[c]azepin-2-yl)-2,6-dimethylphenyl)-3,3-dimethylbutanamide]
COC(Oc1ccc2c(c1)CCCN(c1cc(C)c(NC(=O)CC(C)(C)C)c(C)c1)C2)C(F)(F)F (centres unmarked) [Compound 052, N-(2,6-dimethyl-4-(7-(2,2,2-trifluoro-1-methoxyethoxy)-1,3,4,5-tetrahydro-2H-benzo[c]azepin-2-yl)phenyl)-3,3-dimethylbutanamide]
Cc1cc(N2CCCc3cc(OCC(C)C(F)(F)F)ccc3C2)cc(C)c1NC(=O)CC(C)(C)C (centres unmarked) [Compound 053, N-(2,6-dimethyl-4-(7-(3,3,3-trifluoro-2-methylpropoxy)-1,3,4,5-tetrahydro-2H-benzo[c]azepin-2-yl)phenyl)-3,3-dimethylbutanamide]
Cc1cc(N2CCCc3cc(OCC4(C(F)(F)F)CC4)ccc3C2)cc(C)c1NC(=O)CC(C)(C)C [Compound 054, N-(2,6-dimethyl-4-(7-((1-(trifluoromethyl)cyclopropyl)methoxy)-1,3,4,5-tetrahydro-2H-benzo[c]azepin-2-yl)phenyl)-3,3-dimethylbutanamide]
Cc1cc(N2CCCc3cc(OC(C(F)(F)F)C(F)(F)F)ccc3C2)cc(C)c1NC(=O)CC(C)(C)C [Compound 055, N-(4-(7-((1,1,1,3,3,3-hexafluoropropan-2-yl)oxy)-1,3,4,5-tetrahydro-2H-benzo[c]azepin-2-yl)-2,6-dimethylphenyl)-3,3-dimethylbutanamide]
Cc1cc(N2CCCc3cc(OCCOCC(F)(F)F)ccc3C2)cc(C)c1NC(=O)CC(C)(C)C [Compound 056, N-(2,6-dimethyl-4-(7-(2-(2,2,2-trifluoroethoxy)ethoxy)-1,3,4,5-tetrahydro-2H-benzo[c]azepin-2-yl)phenyl)-3,3-dimethylbutanamide]
Cc1cc(N2CCCc3cc(OCC(F)(F)C(F)F)ccc3C2)cc(C)c1NC(=O)CC(C)(C)C [Compound 057, N-(2,6-dimethyl-4-(7-(2,2,3,3-tetrafluoropropoxy)-1,3,4,5-tetrahydro-2H-benzo[c]azepin-2-yl)phenyl)-3,3-dimethylbutanamide]
Cc1cc(N2CCCc3cc(OCCC(F)(F)F)ccc3C2)cc(C)c1NC(=O)CC(C)(C)C [Compound 058, N-(2,6-dimethyl-4-(7-(3,3,3-trifluoropropoxy)-1,3,4,5-tetrahydro-2H-benzo[c]azepin-2-yl)phenyl)-3,3-dimethylbutanamide]
Cc1cc(N2CCCc3cc(OC4CCC(C(F)(F)F)CC4)ccc3C2)cc(C)c1NC(=O)CC(C)(C)C (centres unmarked) [Compound 059, N-(2,6-dimethyl-4-(7-((4-(trifluoromethyl)cyclohexyl)oxy)-1,3,4,5-tetrahydro-2H-benzo[c]azepin-2-yl)phenyl)-3,3-dimethylbutanamide]
